Assay [1] has as its target SYK protein kinase (Homo sapiens (Human), UniProt P43405). The assay is described as follows: Syk kinase activity inhibition, Caliper mobility shift assay. To be noted: Peptide FAM-P22 and ATP, 30 minutes, 28° C. It is filed as biochemical. As for the experimental part:
Measure of SYK protein kinase activity was carried out by using the Caliper mobility shift assay. The compound was dissolved with DMSO and diluted with kinase buffer (20 mM HEPES pH 7.5, 0.01% Triton X-100, 5 mM MgCl2, 1 mM MnCl2, 2 mM DTT), and 5 μl of 5 times the final concentration of the compounds (10% DMSO) were added to 384 well plate. […] The mixture was incubated for 30 minutes under 28° C., and 25 μl of stop buffer (100 mM HEPES pH 7.5, 0.015% Brij-35, 0.2% Coating Reagent #3, 50 mM EDTA) was added to terminate the reaction. Conversion rate data was read by Caliper EZ Reader II (Caliper Life Sciences). Conversion rate was converted to inhibition rate data (% inhibition rate=(max−conversion rate)/(max−min)*100). The max refers to the conversion rate of the DMSO control, and min refers to the conversion rate of the enzyme-free control. The curve was drawn with the compound concentration and inhibition rate as the horizontal and vertical coordinates, and the curve was fitted with the XLFit excel add-in version 4.3.1 Software, and IC50 was calculated.

For assay [2], the target named is HDAC1 (Homo sapiens (Human), UniProt Q13547). The assay is described as follows: HDAC-1 activity inhibition, fluorescence (Synergy MX). Type of assay: biochemical. To be noted: trypsin and Ac-peptide substrate, 60 minutes, room temperature. As for the experimental part: HDAC activity was measured by the Synergy MX Multi-Function Microplate Reader. The compounds were dissolved with DMSO, and transferred to a 384 well test plate using an Echo non-contact nanoscale sonic pipetting system. 15 μl of enzyme (HDAC1/HDAC6, respectively) solvent was added, and incubated at room temperature for 15 minutes, then 10 μl of substrate (trypsin and Ac-peptide) solution was added. […] Fluorescence intensity signal was convented into inhibition rate data (% inhibition rate=(max−fluorescence intensity)/(max−min)*100). The max refers to the fluorescence intensity of the DMSO control, and min refers to the fluorescence intensity of the enzyme-free control. The curve was drawn with the compound concentration and inhibition rate as the horizontal and vertical coordinates, and the curve was fitted with the GraphPad Prism V5.0 Software, and IC50 was calculated.

pIC50: −log10 of the molar value.

HDAC1, sequence (Q13547 whole entry, species assumed): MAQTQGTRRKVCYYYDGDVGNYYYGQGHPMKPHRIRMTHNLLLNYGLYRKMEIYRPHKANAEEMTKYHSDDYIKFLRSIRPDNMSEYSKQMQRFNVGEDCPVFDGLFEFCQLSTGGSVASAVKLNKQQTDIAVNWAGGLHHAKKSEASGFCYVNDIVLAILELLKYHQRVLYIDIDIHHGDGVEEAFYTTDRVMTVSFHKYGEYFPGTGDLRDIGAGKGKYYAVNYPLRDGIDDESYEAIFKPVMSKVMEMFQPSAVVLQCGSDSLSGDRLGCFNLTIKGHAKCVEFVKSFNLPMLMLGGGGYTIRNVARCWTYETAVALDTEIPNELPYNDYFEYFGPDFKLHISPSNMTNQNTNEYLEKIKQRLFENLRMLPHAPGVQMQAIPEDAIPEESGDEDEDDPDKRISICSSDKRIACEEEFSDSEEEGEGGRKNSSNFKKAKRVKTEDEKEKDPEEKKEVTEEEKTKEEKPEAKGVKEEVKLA

A word on the pIC50: it is the IC50 on a negative log10 scale, so that one unit is a factor of ten. For the compound `O=C(N1CCN2c3ccc(Nc4nc(-c5ccc6cn[nH]c6c5)cn5ccnc45)cc3OC[C@H]2C1)C(F)(F)F` [Compound 9R], the pIC50 in assay [1] is greater than 7.00.
Consider `O=C(NO)c1ccc(NC(=O)c2cccc(-c3cn4ccnc4c(Nc4ccc(N5CCOCC5)cc4)n3)c2)cc1` [Compound 13], for which the pIC50 is greater than 7.00 in assay [1] and greater than 6.70 in assay [2].
In the same order, the values of `O=C(CCCCCCn1ncc2ccc(-c3cn4ccnc4c(Nc4ccc(N5CCOCC5)cc4)n3)cc21)NO` [Compound 14] are greater than 6.30 and greater than 7.70.
In the same order, the values of `CN(CCCCCCC(=O)NO)c1ccc(Nc2nc(-c3ccc4cn[nH]c4c3)cn3ccnc23)cc1` [Compound 20] are greater than 7.30 and greater than 7.70.
Take `CN(CCOCCC(=O)NO)c1ccc(Nc2nc(-c3ccc4cn[nH]c4c3)cn3ccnc23)cc1` [Compound 22]: the pIC50 in assay [1] is greater than 7.30; in assay [2], greater than 6.30.
The corresponding values for `CN(CCN(C)c1ncc(C(=O)NO)cn1)c1ccc(Nc2nc(-c3ccc4cn[nH]c4c3)cn3ccnc23)cc1` [Compound 23] are greater than 7.30 and greater than 7.52.

For the origin of these results see patent US11142535B2, “Heterocyclic compound as Syk inhibitor and/or Syk-HDAC dual inhibitor” (Hangzhou Innogate Pharma Co., Ltd., priority 2016, dated 2021).
